Source: US20230085307A1, “PYRIDAZINONE COMPOUND AND HERBICIDE” (NISSAN CHEMICAL CORPORATION, priority 2019, published 2023)

tested on: blackgrass; test: Test Example 5: herbicidal effect by foliage application, plastic box (Table 20, symbol J); assay type: in vivo, blackgrass (Alopecurus myosuroides); settings: foliage application, 320 g/ha, three weeks after application
In short: (§1)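 Sow seeds spot-wise in sterilized diluvial soil; cover with ~1.5 cm soil. Grow 14 days in greenhouse, 25° C. to 30° C. Spray foliage with emulsion diluted to predetermined amount. Rate effect after 3 weeks.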

Row | Structure (SMILES) | J: blackgrass, herbicidal effect grade
1 | CCCCOc1ccc2c(-c3c(O)c(C)nn(C)c3=O)c(-c3ccccc3OC)sc2c1 [3-105] | 5 (Herbicidal rate of 90% or more (almost completely withered))
2 | COc1ccccc1-c1sc2cc(OCC(C)C)ccc2c1-c1c(O)c(C)nn(C)c1=O [3-107] | 4 (Herbicidal rate of 70% or more and less than 90%)
3 | CCCCCOc1ccc2c(-c3c(O)c(C)nn(C)c3=O)c(-c3ccccc3OC)sc2c1 [3-108] | 0 (Herbicidal rate of 5% or less (almost no effect))

tested on: persian speedwell; test: Test Example 5: herbicidal effect by foliage application, plastic box (Table 20, symbol R); assay type: in vivo, Persian speedwell (Veronica persica); settings: foliage application, 320 g/ha, three weeks after application
In short: as §1

Row | Structure (SMILES) | R: persian speedwell, herbicidal effect grade
4 | CCCCOc1ccc2c(-c3c(O)c(C)nn(C)c3=O)c(-c3ccccc3OC)sc2c1 [3-105] | 5 (Herbicidal rate of 90% or more (almost completely withered))
5 | COc1ccccc1-c1sc2cc(OCC(C)C)ccc2c1-c1c(O)c(C)nn(C)c1=O [3-107] | 5 (Herbicidal rate of 90% or more (almost completely withered))
6 | CCCCCOc1ccc2c(-c3c(O)c(C)nn(C)c3=O)c(-c3ccccc3OC)sc2c1 [3-108] | 4 (Herbicidal rate of 70% or more and less than 90%)

tested on: barnyard grass; test: Test Example 3: herbicidal effect by foliage application, Wagner pot (Table 18, symbol H); assay type: in vivo, barnyard grass (Echinochloa crus-galli); settings: 320 g/ha
In short: (§2)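 Plants were sown in alluvial soil held under 0.1–0.5 cm standing water and grown 14 days in a greenhouse at 25–30 °C. An emulsifiable formulation, water-diluted to the set dose, was then sprayed onto the foliage, and effects were scored three weeks later using previously defined criteria.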

Row | Structure (SMILES) | herbicidal effect on barnyard grass (H)
7 | CCCCOc1ccc2c(-c3c(O)c(C)nn(C)c3=O)c(-c3ccccc3OC)sc2c1 [3-105] | 5 (Herbicidal rate of 90% or more (almost completely withered))
8 | COc1ccccc1-c1sc2cc(OCC(C)C)ccc2c1-c1c(O)c(C)nn(C)c1=O [3-107] | 4 (Herbicidal rate of 70% or more and less than 90%)
9 | CCCCCOc1ccc2c(-c3c(O)c(C)nn(C)c3=O)c(-c3ccccc3OC)sc2c1 [3-108] | 3 (Herbicidal rate of 40% or more and less than 70%)

tested on: redroot pigweed; test: Test Example 5: herbicidal effect by foliage application, plastic box (Table 20, symbol N); assay type: in vivo, redroot pigweed (Amaranthus retroflexus); settings: foliage application, 320 g/ha, three weeks after application
In short: as §1

Row | Structure (SMILES) | N: redroot pigweed, herbicidal effect grade
10 | CCCCOc1ccc2c(-c3c(O)c(C)nn(C)c3=O)c(-c3ccccc3OC)sc2c1 [3-105] | 5 (Herbicidal rate of 90% or more (almost completely withered))
11 | COc1ccccc1-c1sc2cc(OCC(C)C)ccc2c1-c1c(O)c(C)nn(C)c1=O [3-107] | 5 (Herbicidal rate of 90% or more (almost completely withered))
12 | CCCCCOc1ccc2c(-c3c(O)c(C)nn(C)c3=O)c(-c3ccccc3OC)sc2c1 [3-108] | 5 (Herbicidal rate of 90% or more (almost completely withered))

tested on: green foxtail; test: Test Example 5: herbicidal effect by foliage application, plastic box (Table 20, symbol G); assay type: in vivo, green foxtail (Setaria viridis); settings: foliage application, 320 g/ha, three weeks after application
In short: as §1

Row | Structure (SMILES) | G: green foxtail, herbicidal effect grade
13 | CCCCOc1ccc2c(-c3c(O)c(C)nn(C)c3=O)c(-c3ccccc3OC)sc2c1 [3-105] | 5 (Herbicidal rate of 90% or more (almost completely withered))
14 | COc1ccccc1-c1sc2cc(OCC(C)C)ccc2c1-c1c(O)c(C)nn(C)c1=O [3-107] | 5 (Herbicidal rate of 90% or more (almost completely withered))
15 | CCCCCOc1ccc2c(-c3c(O)c(C)nn(C)c3=O)c(-c3ccccc3OC)sc2c1 [3-108] | 3 (Herbicidal rate of 40% or more and less than 70%)

tested on: barnyard grass; test: Test Example 4: herbicidal effect by soil treatment (Table 19, symbol H); assay type: in vivo, barnyard grass (Echinochloa crus-galli); settings: amount of applied herbicide 320 g/ha
In short: (§3)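 Applied as a water-diluted emulsion, the compound was sprayed onto soil covering newly sown seeds. Evaluation came three weeks after application, in a greenhouse held at 25° C. to 30° C.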

Row | Structure (SMILES) | H: barnyard grass, herbicidal effect grade
16 | CCCCOc1ccc2c(-c3c(O)c(C)nn(C)c3=O)c(-c3ccccc3OC)sc2c1 [3-105] | 0 (Herbicidal rate of 5% or less (almost no effect))
17 | COc1ccccc1-c1sc2cc(OCC(C)C)ccc2c1-c1c(O)c(C)nn(C)c1=O [3-107] | 3 (Herbicidal rate of 40% or more and less than 70%)
18 | CCCCCOc1ccc2c(-c3c(O)c(C)nn(C)c3=O)c(-c3ccccc3OC)sc2c1 [3-108] | 0 (Herbicidal rate of 5% or less (almost no effect))

tested on: windgrass; test: Test Example 4: herbicidal effect by soil treatment (Table 19, symbol L); assay type: in vivo, windgrass (Apera spica-venti); settings: amount of applied herbicide 320 g/ha
In short: as §3

Row | Structure (SMILES) | L: windgrass, herbicidal effect grade
19 | CCCCOc1ccc2c(-c3c(O)c(C)nn(C)c3=O)c(-c3ccccc3OC)sc2c1 [3-105] | 4 (Herbicidal rate of 70% or more and less than 90%)
20 | COc1ccccc1-c1sc2cc(OCC(C)C)ccc2c1-c1c(O)c(C)nn(C)c1=O [3-107] | 0 (Herbicidal rate of 5% or less (almost no effect))
21 | CCCCCOc1ccc2c(-c3c(O)c(C)nn(C)c3=O)c(-c3ccccc3OC)sc2c1 [3-108] | 0 (Herbicidal rate of 5% or less (almost no effect))

tested on: chickweed; test: Test Example 4: herbicidal effect by soil treatment (Table 19, symbol P); assay type: in vivo, common chickweed (Stellaria media); settings: amount of applied herbicide 320 g/ha
In short: as §3

Row | Structure (SMILES) | P: chickweed, herbicidal effect grade
22 | CCCCOc1ccc2c(-c3c(O)c(C)nn(C)c3=O)c(-c3ccccc3OC)sc2c1 [3-105] | 3 (Herbicidal rate of 40% or more and less than 70%)
23 | COc1ccccc1-c1sc2cc(OCC(C)C)ccc2c1-c1c(O)c(C)nn(C)c1=O [3-107] | 1 (Herbicidal rate of 5% or more and less than 20%)
24 | CCCCCOc1ccc2c(-c3c(O)c(C)nn(C)c3=O)c(-c3ccccc3OC)sc2c1 [3-108] | 0 (Herbicidal rate of 5% or less (almost no effect))

tested on: late watergrass; test: Test Example 1: herbicidal activity, application before weed generation under submerged conditions (Table 16, symbol A); assay type: in vivo, late watergrass (Echinochloa oryzicola); settings: amount of applied herbicide 320 g/ha
In short: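 Alluvial soil was flooded to 4 cm depth, weed seeds were sown mixed and 2.5-leaf rice seedlings were transplanted. On sowing day, the compound's emulsion, diluted in water to a set dose, was applied to the water surface. Plants grew at 25–30 °C and were scored 0–5 after three weeks.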

Row | Structure (SMILES) | Herbicidal effect, A: late watergrass
25 | CCCCOc1ccc2c(-c3c(O)c(C)nn(C)c3=O)c(-c3ccccc3OC)sc2c1 [3-105] | 5 (Herbicidal rate of 90% or more (almost completely withered))
26 | COc1ccccc1-c1sc2cc(OCC(C)C)ccc2c1-c1c(O)c(C)nn(C)c1=O [3-107] | 4 (Herbicidal rate of 70% or more and less than 90%)
27 | CCCCCOc1ccc2c(-c3c(O)c(C)nn(C)c3=O)c(-c3ccccc3OC)sc2c1 [3-108] | 3 (Herbicidal rate of 40% or more and less than 70%)

tested on: oval-leafed pondweed; test: Test Example 2: herbicidal activity, application during weed generation under submerged conditions (Table 17, symbol C); assay type: in vivo, oval-leafed pondweed (Monochoria vaginalis); settings: AAH 320 g/ha; application during weed generation, submerged conditions
In short: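 Wagner pot, alluvial soil, 4 cm flood; mixed sowing of all species; greenhouse 25° C.–30° C. Emulsifiable formulation, water-diluted to predetermined dose, applied to paddy water at 1–2 leaf stage. Effect rated at 3 wk using the earlier test's scoring criteria.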

Row | Structure (SMILES) | herbicidal effect rating, C: oval-leafed pondweed
28 | CCCCOc1ccc2c(-c3c(O)c(C)nn(C)c3=O)c(-c3ccccc3OC)sc2c1 [3-105] | 4 (Herbicidal rate of 70% or more and less than 90%)
29 | COc1ccccc1-c1sc2cc(OCC(C)C)ccc2c1-c1c(O)c(C)nn(C)c1=O [3-107] | 5 (Herbicidal rate of 90% or more (almost completely withered))
30 | CCCCCOc1ccc2c(-c3c(O)c(C)nn(C)c3=O)c(-c3ccccc3OC)sc2c1 [3-108] | 0 (Herbicidal rate of 5% or less (almost no effect))

tested on: blackgrass; test: Test Example 4: herbicidal effect by soil treatment (Table 19, symbol J); assay type: in vivo, blackgrass (Alopecurus myosuroides); settings: amount of applied herbicide 320 g/ha
In short: as §3

Row | Structure (SMILES) | J: blackgrass, herbicidal effect grade
31 | CCCCOc1ccc2c(-c3c(O)c(C)nn(C)c3=O)c(-c3ccccc3OC)sc2c1 [3-105] | 0 (Herbicidal rate of 5% or less (almost no effect))
32 | COc1ccccc1-c1sc2cc(OCC(C)C)ccc2c1-c1c(O)c(C)nn(C)c1=O [3-107] | 0 (Herbicidal rate of 5% or less (almost no effect))
33 | CCCCCOc1ccc2c(-c3c(O)c(C)nn(C)c3=O)c(-c3ccccc3OC)sc2c1 [3-108] | 0 (Herbicidal rate of 5% or less (almost no effect))

tested on: redroot pigweed; test: Test Example 4: herbicidal effect by soil treatment (Table 19, symbol N); assay type: in vivo, redroot pigweed (Amaranthus retroflexus); settings: amount of applied herbicide 320 g/ha
In short: as §3

Row | Structure (SMILES) | N: redroot pigweed, herbicidal effect grade
34 | CCCCOc1ccc2c(-c3c(O)c(C)nn(C)c3=O)c(-c3ccccc3OC)sc2c1 [3-105] | 4 (Herbicidal rate of 70% or more and less than 90%)
35 | COc1ccccc1-c1sc2cc(OCC(C)C)ccc2c1-c1c(O)c(C)nn(C)c1=O [3-107] | 5 (Herbicidal rate of 90% or more (almost completely withered))
36 | CCCCCOc1ccc2c(-c3c(O)c(C)nn(C)c3=O)c(-c3ccccc3OC)sc2c1 [3-108] | 4 (Herbicidal rate of 70% or more and less than 90%)

tested on: green foxtail; test: Test Example 4: herbicidal effect by soil treatment (Table 19, symbol G); assay type: in vivo, green foxtail (Setaria viridis); settings: amount of applied herbicide 320 g/ha
In short: as §3

Row | Structure (SMILES) | G: green foxtail, herbicidal effect grade
37 | CCCCOc1ccc2c(-c3c(O)c(C)nn(C)c3=O)c(-c3ccccc3OC)sc2c1 [3-105] | 3 (Herbicidal rate of 40% or more and less than 70%)
38 | COc1ccccc1-c1sc2cc(OCC(C)C)ccc2c1-c1c(O)c(C)nn(C)c1=O [3-107] | 4 (Herbicidal rate of 70% or more and less than 90%)
39 | CCCCCOc1ccc2c(-c3c(O)c(C)nn(C)c3=O)c(-c3ccccc3OC)sc2c1 [3-108] | 0 (Herbicidal rate of 5% or less (almost no effect))

tested on: Chinese sprangletop; test: Test Example 3: herbicidal effect by foliage application, Wagner pot (Table 18, symbol D); assay type: in vivo, chinese sprangletop (Leptochloa chinensis); settings: 320 g/ha
In short: as §2

Row | Structure (SMILES) | herbicidal effect on Chinese sprangletop (D)
40 | CCCCOc1ccc2c(-c3c(O)c(C)nn(C)c3=O)c(-c3ccccc3OC)sc2c1 [3-105] | 5 (Herbicidal rate of 90% or more (almost completely withered))
41 | COc1ccccc1-c1sc2cc(OCC(C)C)ccc2c1-c1c(O)c(C)nn(C)c1=O [3-107] | 3 (Herbicidal rate of 40% or more and less than 70%)
42 | CCCCCOc1ccc2c(-c3c(O)c(C)nn(C)c3=O)c(-c3ccccc3OC)sc2c1 [3-108] | 2 (Herbicidal rate of 20% or more and less than 40%)

tested on: southern crabgrass; test: Test Example 5: herbicidal effect by foliage application, plastic box (Table 20, symbol F); assay type: in vivo, southern crabgrass (Digitaria ciliaris); settings: foliage application, 320 g/ha, three weeks after application
In short: as §1

Row | Structure (SMILES) | F: southern crabgrass, herbicidal effect grade
43 | CCCCOc1ccc2c(-c3c(O)c(C)nn(C)c3=O)c(-c3ccccc3OC)sc2c1 [3-105] | 5 (Herbicidal rate of 90% or more (almost completely withered))
44 | COc1ccccc1-c1sc2cc(OCC(C)C)ccc2c1-c1c(O)c(C)nn(C)c1=O [3-107] | 5 (Herbicidal rate of 90% or more (almost completely withered))
45 | CCCCCOc1ccc2c(-c3c(O)c(C)nn(C)c3=O)c(-c3ccccc3OC)sc2c1 [3-108] | 0 (Herbicidal rate of 5% or less (almost no effect))

tested on: southern crabgrass; test: Test Example 4: herbicidal effect by soil treatment (Table 19, symbol F); assay type: in vivo, southern crabgrass (Digitaria ciliaris); settings: amount of applied herbicide 320 g/ha
In short: as §3

Row | Structure (SMILES) | F: southern crabgrass, herbicidal effect grade
46 | CCCCOc1ccc2c(-c3c(O)c(C)nn(C)c3=O)c(-c3ccccc3OC)sc2c1 [3-105] | 0 (Herbicidal rate of 5% or less (almost no effect))
47 | COc1ccccc1-c1sc2cc(OCC(C)C)ccc2c1-c1c(O)c(C)nn(C)c1=O [3-107] | 3 (Herbicidal rate of 40% or more and less than 70%)
48 | CCCCCOc1ccc2c(-c3c(O)c(C)nn(C)c3=O)c(-c3ccccc3OC)sc2c1 [3-108] | 0 (Herbicidal rate of 5% or less (almost no effect))
